The term IC50 denotes the concentration that inhibits the measured activity by half. One may read the clearance as a measure of how efficiently the substance is removed, as volume per time. In general, MRT refers to the average time that molecules of a dose stay in the body.

We go through 2 molecules from US20230148417A1, “FUSED BICYCLIC DERIVATIVE, PREPARATION METHOD THEREFOR, AND PHARMACEUTICAL USE THEREOF” (Jiangsu Hengrui Pharmaceuticals Co., Ltd., priority 2020, published 2023).

Data set [1] concerns the target T1, AKT2 (Homo sapiens, UniProt P31751).
T1 construct: purchased Invitrogen PV3184
In words: AKT2 enzymatic assay (KinEASE-STK S3 HTRF kit). It counts as biochemical. The note with it: 5 nM enzyme, 10 μM ATP, 2 μM S3-biotin. The procedure: (§1) The following methods were used to determine the inhibitory effect of the compounds of the present disclosure on the kinase activity of AKT1/AKT2/AKT3 in vitro. The experimental methodology is briefly described as follows:
(§2) The enzyme activity of AKT1 (Invitrogen, P2999), AKT2 (Invitrogen, PV3184) and AKT3 (Invitrogen, PV3185) was determined using a KinEASE-STK S3 kit (Cisbio, 62ST3PEC). Test compounds were each first subjected to 3-fold gradient dilution with DMSO from 500 μM to obtain a total of 11 concentrations. The 5× buffer in the kit was diluted to 1×buffer, and DTT (Sigma, 43816-10ML) and MgCl2 were added to make the buffer contain 1 mM DTT and 5 mM MgCl2. Compounds were each subjected to 20-fold dilution with 1× buffer for later use. The enzyme solution was obtained by diluting the AKT1/AKT2/AKT3 kinase with 1× buffer. ATP (Invitrogen, PV3227) and S3-biotin in the kit were diluted with 1× buffer to obtain a substrate-ATP mixture solution for later use. 2 μL of the enzyme solution and 4 μL of the compound solution were added to each well of a 384-well plate (Corning, 4513), and the mixture was incubated at room temperature for 30 min, followed by addition of 4 μL of the ATP and S3-biotin mixture solution. The resulting mixture was incubated at room temperature for 90 min. AKT1 enzyme reaction conditions were a final concentration of 2 nM for enzyme, a final concentration of 10 μM for ATP, and a final concentration of 2 μM for S3-biotin. AKT2 enzyme reaction conditions were a final concentration of 5 nM for enzyme, a final concentration of 10 μM for ATP, and a final concentration of 2 μM for S3-biotin. AKT3 enzyme reaction conditions were a final concentration of 0.4 nM for enzyme, a final concentration of 45 μM for ATP, and a final concentration of 2 μM for S3-biotin. The detection solution was prepared by diluting the S3-cryptate and streptavidin-XL665 with the detection buffer in the kit. After incubation, 10 μL of the detection solution was added to each well, the final concentration of S3-cryptate was a concentration obtained by 200-fold dilution of the stock solution, and the final concentration of streptavidin-XL665 was 125 nM. The mixture was incubated at room temperature for 60 min, values of signals emitted at […] and 620 nm after excitation at 337 nm were measured by using an HTRF module of a multi-functional microplate detector (BMG Labtech, PHERAstar FS), and the reading ratio was multiplied by 10,000 to obtain a specific value. Dose-response curves were drawn according to the concentration of the compounds and the specific values by using Graphpad Prism software, and the IC50 values for the inhibitory activity of the compounds were calculated.
On the technique in general: TR-FRET usually uses a lanthanide donor and a delayed reading to cut background.

For data set [2], the target named is T2, AKT1 (Homo sapiens, UniProt P31749).
T2 construct: purchased Invitrogen P2999
In words: AKT1 enzymatic assay (KinEASE-STK S3 HTRF kit). It counts as biochemical. As to conditions: 2 nM enzyme, 10 μM ATP, 2 μM S3-biotin. The method, then:
as §1, §2

Data set [3] addresses T3, AKT3 (Homo sapiens, UniProt Q9Y243).
T3 construct: purchased Invitrogen PV3185
Description: AKT3 enzymatic assay (KinEASE-STK S3 HTRF kit). Format: biochemical. As to conditions: 0.4 nM enzyme, 45 μM ATP, 2 μM S3-biotin. The method, then:
as §1, §2

Data set [4] is described as follows: Pharmacokinetic study in rats, administration by injection (i.v.). Format: in vivo. The note with it: both sexes, rat, iv, SD rats, 1 mg/kg, plasma; for Vd: read-out: Apparent volume of distribution Vz; for AUC(0-t): read-out: Area under curve AUC0-t; for clearance: read-out: Clearance CL; for half-life: read-out: Half-life T1/2 (converted); for MRT: read-out: Residence time MRT. The procedure:
The drug concentration in the plasma of the test animals (SD rats) at different time points after injection (i.v.) of the test compounds was determined by using an LC/MS/MS method. The pharmacokinetic performance in rats of the compounds of present disclosure was studied and their pharmacokinetic profile was evaluated.
8 SD rats, half male and half female, divided into 2 groups, purchased from Vital River Laboratory Animal Technology Co., Ltd.
A certain amount of the compound was weighed out, and 5% of DMSO, 5% of Tween 80 and 90% of normal saline were added to obtain a colorless and clear solution.
The rats were subjected to administration by injection, the administration dose was 1 mg/kg, and the administration volume was 5 mL/kg.
The test compound was administered by injection to the rats, and 0.2 mL of blood was collected from the orbit before administration and 5 min, 0.25 h, 0.5 h, 1.0 h, 2.0 h, 4.0 h, 8.0 h, 11.0 h and 24.0 h after administration. The blood was placed in an EDTA-K2 anticoagulation tube and centrifuged at 10,000 rpm for 1 min (4° C.), and plasma was separated out within 1 h and then stored at −20° C. for testing. The process from blood sampling to centrifugation was performed under an ice bath.
The content of the test compounds at different concentrations in the rat plasma after administration by injection was determined: 25 μL of rat plasma at each time point after administration was mixed with 50 μL of internal standard solution (camptothecin, 100 ng/mL) and 200 μL of acetonitrile, and the mixture was vortexed for 5 min and centrifuged for 10 min at 3700 rpm. 3 μL of supernatant of the plasma sample was taken for LC/MS/MS analysis.

T3 sequence (Q9Y243 whole entry): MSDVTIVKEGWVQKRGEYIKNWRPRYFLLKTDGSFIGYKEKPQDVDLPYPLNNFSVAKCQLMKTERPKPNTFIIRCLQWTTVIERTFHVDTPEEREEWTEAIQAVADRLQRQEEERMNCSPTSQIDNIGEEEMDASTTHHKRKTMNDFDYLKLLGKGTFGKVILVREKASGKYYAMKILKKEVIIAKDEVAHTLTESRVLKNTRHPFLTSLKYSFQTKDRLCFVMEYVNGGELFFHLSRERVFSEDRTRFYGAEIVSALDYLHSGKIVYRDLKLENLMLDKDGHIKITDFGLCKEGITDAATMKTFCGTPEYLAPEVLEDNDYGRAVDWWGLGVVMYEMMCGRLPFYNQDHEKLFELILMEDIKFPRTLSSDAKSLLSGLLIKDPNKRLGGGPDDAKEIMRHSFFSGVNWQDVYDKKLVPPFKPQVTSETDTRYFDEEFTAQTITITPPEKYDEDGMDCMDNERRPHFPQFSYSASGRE
T2 sequence (P31749 whole entry): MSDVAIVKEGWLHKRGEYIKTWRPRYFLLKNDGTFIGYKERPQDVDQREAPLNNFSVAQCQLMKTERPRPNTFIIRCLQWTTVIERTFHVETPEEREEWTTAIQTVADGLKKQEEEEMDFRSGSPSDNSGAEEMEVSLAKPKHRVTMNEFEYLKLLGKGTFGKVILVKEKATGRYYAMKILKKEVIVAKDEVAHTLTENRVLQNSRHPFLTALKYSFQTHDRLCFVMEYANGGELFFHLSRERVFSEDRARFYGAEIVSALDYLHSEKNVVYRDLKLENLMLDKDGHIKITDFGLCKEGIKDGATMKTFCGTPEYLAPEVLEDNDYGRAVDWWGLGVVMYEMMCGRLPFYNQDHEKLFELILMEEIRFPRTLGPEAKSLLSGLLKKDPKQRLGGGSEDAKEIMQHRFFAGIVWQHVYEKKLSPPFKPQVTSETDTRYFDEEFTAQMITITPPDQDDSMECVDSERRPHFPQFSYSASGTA
T1 sequence (P31751 whole entry): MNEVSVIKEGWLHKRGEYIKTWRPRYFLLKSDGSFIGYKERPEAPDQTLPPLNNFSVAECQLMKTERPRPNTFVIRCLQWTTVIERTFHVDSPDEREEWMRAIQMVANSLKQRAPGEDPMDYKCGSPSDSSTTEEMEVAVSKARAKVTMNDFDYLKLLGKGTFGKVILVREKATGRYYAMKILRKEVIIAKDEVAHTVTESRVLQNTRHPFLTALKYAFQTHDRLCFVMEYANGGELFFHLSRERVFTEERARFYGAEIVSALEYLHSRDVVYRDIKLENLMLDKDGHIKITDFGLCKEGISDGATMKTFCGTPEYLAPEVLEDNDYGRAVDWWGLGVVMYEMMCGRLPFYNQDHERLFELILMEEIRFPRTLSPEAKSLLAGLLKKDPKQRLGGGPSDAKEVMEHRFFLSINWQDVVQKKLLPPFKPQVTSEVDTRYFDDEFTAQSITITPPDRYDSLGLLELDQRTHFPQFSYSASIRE

With `CC(C)NC[C@@H](C(=O)N1C2CCC1CN(c1ncnc3c1C(C)(C)C(=O)N3)C2)c1ccc(Cl)cc1` [Example 2], in data set [1], the IC50 was determined as 74.1 nM. This molecule also displayed an IC50 in data set [2] of 60 nM. In data set [3], this molecule showed an IC50 of 2 nM. Besides, in data set [4], the Vd is 13 L/kg, the AUC(0-t) worked out at 221 ng·h/mL, the clearance amounted to 75.4 mL/min/kg and the half-life was 2 h. The MRT in data set [4] was determined as 2.6 h.

Molecule `CC(C)NC[C@@H](C(=O)N1[C@@H]2CC[C@H]1CN(c1ncnc3c1[C@H](C)C[C@H]3O)C2)c1ccc(Cl)cc1` [Example 4, (S)-2-(4-chlorophenyl)-1-((1R,5S)-3-((5R,7R)-7-hydroxy-5-methyl-6,7-dihydro-5H-cyclopenta[d]pyrimidin-4-yl)-3,8-diazabicyclo[3.2.1]octan-8-yl)-3-(isopropylamino)propan-1-one] showed a concentration for half-maximal inhibition (IC50) in data set [1] of 46.4 nM. Besides, the IC50 in data set [2] is 38.6 nM. Moreover, in data set [3], the IC50 was 55.6 nM. In addition, in data set [4], the Vd came to 16.3 L/kg, the AUC(0-t) stood at 205 ng·h/mL, the clearance turned out to be 82.9 mL/min/kg and the half-life was 2.5 h. In data set [4], the mean residence time (MRT) amounted to 2.2 h.
